Data: ChEMBL document CHEMBL1123381, “Synthesis and antiviral evaluation of 1,4-dioxane nucleoside analogues related to nucleoside dialdehydes” (1986)
Activity calls are given as the source filed them. The calls are words filed in the database; no cut-off is given here.

How the values were obtained:
[1] = The compound was evaluated for cellular toxicity against [3H]thymidine incorporation into DNA of uninfected mouse L-cells; type: functional
[2] = system: Vaccinia virus; experiment: The compound was tested for inhibitory activity against vaccinia virus replication; NA=Not active; type: functional, organism-based; conditions: Orthopoxvirus vaccinia
[3] = system: Vaccinia virus; experiment: The compound was tested for inhibitory activity against vaccinia virus replication; type: functional; conditions: Orthopoxvirus vaccinia; read-out: ID50 (the source's name)

Nc1ncnc2c1ncn2C1COCC(CO)O1 (stereo not drawn)
[3H]thymidine incorporation, % of control [1]: 95% | ID50 [2]: inactive

Nc1nc(O)c2ncn(C3COCC(CO)O3)c2n1 (stereo not drawn)
[3H]thymidine incorporation, % of control [1]: 99% | ID50 [2]: inactive

Nc1ncnc2c1ncn2[C@@H](C=O)O[C@@H](C=O)CO
IC50 [3]: 0.3 µM | [3H]thymidine incorporation, % of control [1]: 8.3%

C=C(CO)OC(=C)n1cnc2c(N)ncnc21
IC50 [3]: 30 µM | [3H]thymidine incorporation, % of control [1]: 104%
